We go through 27 compounds from patent US10442803B2, “Tricyclic heterocycles as bet protein inhibitors” (Incyte Corporation, priority 2013, dated 2019).

Counter-ions that a name gives are not always drawn.

Usually IC50 stands for the concentration that inhibits the measured activity by half.

In this assay the test system is KMS.12.BM cells. The assay is described as follows: KMS.12.BM cell viability assay. The settings on record: 72 h; KMS.12.BM human myeloma cells, 3 days, Cell Titer-GLO ATP quantitation; read-out: KMS cellular IC50. The format is cell-based. How it is done:
KMS.12.BM cell line (human myeloma) was purchased from JCRB (Osaka, Japan) and maintained in RPMI with 10% FBS culture medium. To measure the cytotoxic activity of the compounds through ATP quantitation, the KMS.12.BM cells are plated in the RPMI culture medium at 5000 cells/well/per 100 μL into a 96-well polystyrene clear black tissue culture plate (Greiner-bio-one through VWR, NJ), in the presence or absence of a concentration range of test compounds. After 3 days, […] Cell Titer-GLO Luminescent (Promega, Madison, Wis.) cell culture agent is added to each well for 10 minutes at room temperature to stabilize the luminescent signal. This determines the number of viable cells in culture based on quantitation of the ATP present, which signals the presence of metabolically active cells. Luminescence is measured with the Top Count 384 (Packard Bioscience through Perkin Elmer, Boston, Mass.).
IC50 data for the Examples is presented in Table 4 as determined by Assay B1.
`Cc1cc2c(ccc3nnc(C)n32)n1Cc1ccc2ccccc2n1` [Example 21, 1,7-dimethyl-6-(quinolin-2-ylmethyl)-6H-pyrrolo[2,3-e][1,2,4]triazolo[4,3-a]pyridine]: the IC50 was at most 1000 nM.

As to `COc1cccc(Cn2c(C)cc3c2ccc2nnc(C)n23)c1` [Example 22, 6-(3-methoxybenzyl)-1,7-dimethyl-6H-pyrrolo[2,3-e][1,2,4]triazolo[4,3-a]pyridine], the IC50 is at most 1000 nM.

Regarding `Cc1cc2c(ccc3nnc(C)n32)n1Cc1cccc(O)c1` [Example 23, 3-[(1,7-dimethyl-6H-pyrrolo[2,3-e][1,2,4]triazolo[4,3-a]pyridin-6-yl)methyl]phenol], the IC50 was at most 1000 nM.

Regarding `CC(=O)Nc1cccc(Cn2c(C)cc3c2ccc2nnc(C)n23)c1` [Example 25, N-{3-[(1,7-dimethyl-6H-pyrrolo[2,3-e][1,2,4]triazolo[4,3-a]pyridin-6-yl)methyl]phenyl}acetamide trifluoroacetate salt], the IC50 was at most 1000 nM.

For the compound `Cc1cc2c(ccc3nnc(C)n32)n1Cc1cccc(CO)c1` [Example 26, {3-[(1,7-dimethyl-6H-pyrrolo[2,3-e][1,2,4]triazolo[4,3-a]pyridin-6-yl)methyl]phenyl}methanol trifluoroacetate salt], the IC50 is at most 1000 nM.

In the case of `Cc1cc2c(ccc3nnc(C)n32)n1Cc1cccc(CN2CC(O)C2)c1` [Example 27, 1-(3-((1,7-dimethyl-6H-pyrrolo[2,3-e][1,2,4]triazolo[4,3-a]pyridin-6-yl)methyl)benzyl)azetidin-3-ol bis-trifluoroacetate salt], the IC50 was at most 1000 nM.

Regarding `Cc1cc2c(ccc3nnc(C)n32)n1Cc1cccc(CN2CCC2)c1` [Example 28, 6-[3-(azetidin-1-ylmethyl)benzyl]-1,7-dimethyl-6H-pyrrolo[2,3-e][1,2,4]triazolo[4,3-a]pyridine], the IC50 is at most 1000 nM.

With `Cc1cc2c(ccc3nnc(C)n32)n1Cc1cccc(C(N)=O)c1` [Example 30, 3-((1,7-dimethyl-6H-pyrrolo[2,3-e][1,2,4]triazolo[4,3-a]pyridin-6-yl)methyl)benzamide trifluoroacetate salt], the IC50 is 1000 to 10000 nM.

`Cc1cc2c(ccc3nnc(C)n32)n1Cc1cccc(C(=O)NO)c1` [Example 31, 3-[(1,7-dimethyl-6H-pyrrolo[2,3-e][1,2,4]triazolo[4,3-a]pyridin-6-yl)methyl]-N-hydroxybenzamide trifluoroacetate salt]: the IC50 was in the range of 1000 to 10000 nM.

For the compound `CNC(=O)c1cccc(Cn2c(C)cc3c2ccc2nnc(C)n23)c1` [Example 32, 3-[(1,7-dimethyl-6H-pyrrolo[2,3-e][1,2,4]triazolo[4,3-a]pyridin-6-yl)methyl]-N-methylbenzamide trifluoroacetate salt], the IC50 is at most 1000 nM.

As to `CCNC(=O)c1cccc(Cn2c(C)cc3c2ccc2nnc(C)n23)c1` [Example 33, 3-[(1,7-dimethyl-6H-pyrrolo[2,3-e][1,2,4]triazolo[4,3-a]pyridin-6-yl)methyl]-N-ethylbenzamide trifluoroacetate salt], the IC50 is at most 1000 nM.

In the case of `COc1ccc(Cn2c(C)cc3c2ccc2nnc(C)n23)cc1` [Example 34, 6-(4-methoxybenzyl)-1,7-dimethyl-6H-pyrrolo[2,3-e][1,2,4]triazolo[4,3-a]pyridine], the IC50 was at most 1000 nM.

Consider `Cc1cc2c(ccc3nnc(C)n32)n1Cc1ccc(O)cc1` [Example 35, 4-[(1,7-dimethyl-6H-pyrrolo[2,3-e][1,2,4]triazolo[4,3-a]pyridin-6-yl)methyl]phenol], for which the IC50 was at most 1000 nM.

Consider `Cc1cc2c(ccc3nnc(C)n32)n1Cc1cccc(CNCCO)c1` [Example 36, 2-({3-[(1,7-dimethyl-6H-pyrrolo[2,3-e][1,2,4]triazolo[4,3-a]pyridin-6-yl)methyl]benzyl}amino)ethanol], for which the half-inhibitory concentration (IC50) is at most 1000 nM.

Consider `Cc1cc2c(ccc3nnc(C)n32)n1Cc1cccc(CN(C)CCO)c1` [Example 37, 2-[{3-[(1,7-dimethyl-6H-pyrrolo[2,3-e][1,2,4]triazolo[4,3-a]pyridin-6-yl)methyl]benzyl}(methyl)amino]ethanol], for which the IC50 is at most 1000 nM.

For `Cc1cc2c(ccc3nnc(C)n32)n1Cc1cccc(CN2CCOCC2)c1` [Example 38, 1,7-dimethyl-6-[3-(morpholin-4-ylmethyl)benzyl]-6H-pyrrolo[2,3-e][1,2,4]triazolo[4,3-a]pyridine], the IC50 is at most 1000 nM.

As to `Cc1cc2c(ccc3nnc(C)n32)n1Cc1cccc(CN[C@H]2C[C@H](O)C2)c1` [Example 39, (1r,3r)-3-((3-((1,7-dimethyl-6H-pyrrolo[2,3-e][1,2,4]triazolo[4,3-a]pyridin-6-yl)methyl)benzyl)amino)cyclobutanol], the IC50 was at most 1000 nM.

As for `Cc1cc2c(ccc3nnc(C)n32)n1Cc1cccc(CN(C)C)c1` [Example 40, 1-{3-[(1,7-dimethyl-6H-pyrrolo[2,3-e][1,2,4]triazolo[4,3-a]pyridin-6-yl)methyl]phenyl}-N,N-dimethylmethanamine], the IC50 was at most 1000 nM.

Consider `CNCc1cccc(Cn2c(C)cc3c2ccc2nnc(C)n23)c1` [Example 41, 1-{3-[(1,7-dimethyl-6H-pyrrolo[2,3-e][1,2,4]triazolo[4,3-a]pyridin-6-yl)methyl]phenyl}-N-methylmethanamine], for which the IC50 was at most 1000 nM.

With `CCNCc1cccc(Cn2c(C)cc3c2ccc2nnc(C)n23)c1` [Example 42, N-{3-[(1,7-dimethyl-6H-pyrrolo[2,3-e][1,2,4]triazolo[4,3-a]pyridin-6-yl)methyl]benzyl}ethanamine], the IC50 was at most 1000 nM.

As to `CCNC(=O)Nc1cccc(Cn2c(C)cc3c2ccc2nnc(C)n23)c1` [Example 43, N-{3-[(1,7-dimethyl-6H-pyrrolo[2,3-e][1,2,4]triazolo[4,3-a]pyridin-6-yl)methyl]phenyl}-N′-ethylurea trifluoroacetate salt], the IC50 lay in the range of 1000 to 10000 nM.

Turning to `Cc1cc2c(ccc3nnc(C)n32)n1Cc1cccc(NC(N)=O)c1` [Example 44, N-{3-[(1,7-dimethyl-6H-pyrrolo[2,3-e][1,2,4]triazolo[4,3-a]pyridin-6-yl)methyl]phenyl}urea], the IC50 was 1000 to 10000 nM.

With `Cc1cc2c(ccc3nnc(C)n32)n1Cc1cccc(CN2CCCC2)c1` [Example 45, 1,7-dimethyl-6-[3-(pyrrolidin-1-ylmethyl)benzyl]-6H-pyrrolo[2,3-e][1,2,4]triazolo[4,3-a]pyridine], the IC50 is at most 1000 nM.

Consider `Cc1cc2c(ccc3nnc(C)n32)n1Cc1cccc(CN2CCCCC2)c1` [Example 46, 1,7-dimethyl-6-[3-(piperidin-1-ylmethyl)benzyl]-6H-pyrrolo[2,3-e][1,2,4]triazolo[4,3-a]pyridine], for which the IC50 is at most 1000 nM.

Consider `Cc1cc2c(ccc3nnc(C)n32)n1Cc1cccc(CN2CCN(C)CC2)c1` [Example 47, 1,7-dimethyl-6-{3-[(4-methylpiperazin-1-yl)methyl]benzyl}-6H-pyrrolo[2,3-e][1,2,4]triazolo[4,3-a]pyridine], for which the IC50 lay within 1000 to 10000 nM.

Turning to `Cc1cc2c(ccc3nnc(C)n32)n1Cc1cccc(CN2CCNCC2)c1` [Example 48, 1,7-dimethyl-6-[3-(piperazin-1-ylmethyl)benzyl]-6H-pyrrolo[2,3-e][1,2,4]triazolo[4,3-a]pyridine], the IC50 lay within 1000 to 10000 nM.

`Cc1cc2c(ccc3nnc(C)n32)n1Cc1ccc(CO)cc1` [Example 49, {4-[(1,7-dimethyl-6H-pyrrolo[2,3-e][1,2,4]triazolo[4,3-a]pyridin-6-yl)methyl]phenyl}methanol]: the half-inhibitory concentration (IC50) was at most 1000 nM.
